Reference: patent US20170008928A1, “NOVEL PEPTIDES AND PEPTIDE DERIVATIVES AND USES THEREOF” (Novo Nordisk A/S, priority 2015, published 2017)
Like-named read-outs stand apart in the source and are kept apart here. Starred links: 1 amine or outer side, 2 acyl side, 3 side chain; linkers in the order of their positions; H or OH if unused. Non-standard residues stand in square brackets, D forms with d. Residues, ends and D or L forms follow the SMILES beside them. *: point of attachment. Phe(4-CH2SO3H) = N[C@@H](Cc1ccc(CS(=O)(=O)O)cc1)C(=O)O; C20 diacid = O=C(O)CCCCCCCCCCCCCCCCCCC(=O)*; sY = N[C@@H](Cc1ccc(OS(=O)(=O)O)cc1)C(=O)O; C18 diacid = O=C(O)CCCCCCCCCCCCCCCCC(=O)*; γGlu = O=C(O)[C@H](CCC(=O)[*:2])N[*:1]; 1Nal = N[C@@H](Cc1cccc2ccccc12)C(=O)O; C14 diacid = O=C(O)CCCCCCCCCCCCC(=O)*; NMeF = CN[C@@H](Cc1ccccc1)C(=O)O; dNMeD = CN[C@H](CC(=O)O)C(=O)O; Nle = CCCC[C@H](N)C(=O)O; AEEA = NCCOCCOCC(=O)O

Experiments:
[1] = biological target: T1, human cholecystokinin-2 receptor (CCK-2R) (Homo sapiens, UniProt P32239); assay: In vitro potency on CCK-2R, whole cell functional assay (IP1 accumulation, IP-One HTRF); type: cell-based
T1 construct: host or cells: 1321-N1 cells (plasma membranes prepared by Evotec AG Hamburg)
T1 sequence (P32239 1-447): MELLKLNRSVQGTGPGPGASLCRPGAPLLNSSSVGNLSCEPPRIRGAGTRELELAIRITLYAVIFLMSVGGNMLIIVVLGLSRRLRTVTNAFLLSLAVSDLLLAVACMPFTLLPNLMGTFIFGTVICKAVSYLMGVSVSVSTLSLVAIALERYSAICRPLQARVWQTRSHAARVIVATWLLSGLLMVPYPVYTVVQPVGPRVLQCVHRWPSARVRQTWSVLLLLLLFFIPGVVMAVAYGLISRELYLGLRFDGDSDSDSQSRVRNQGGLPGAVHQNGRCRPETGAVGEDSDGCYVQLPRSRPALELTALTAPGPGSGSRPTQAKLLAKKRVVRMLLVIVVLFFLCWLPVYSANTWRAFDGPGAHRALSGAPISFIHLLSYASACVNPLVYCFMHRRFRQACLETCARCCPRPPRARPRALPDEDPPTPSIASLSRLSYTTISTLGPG

[2] = biological target: T1, human cholecystokinin-2 receptor (CCK-2R); assay: In vitro receptor binding to CCK-2R, SPA displacement of [125I]-CCK-8s from plasma membranes
[3] = biological target: T2, human cholecystokinin-1 receptor (CCK-1R) (Homo sapiens, UniProt P32238); assay: In vitro potency on CCK-1R, whole cell functional assay (IP1 accumulation, IP-One HTRF); type: cell-based
T2 construct: host or cells: 1321-N1 cells
T2 sequence (P32238 1-428): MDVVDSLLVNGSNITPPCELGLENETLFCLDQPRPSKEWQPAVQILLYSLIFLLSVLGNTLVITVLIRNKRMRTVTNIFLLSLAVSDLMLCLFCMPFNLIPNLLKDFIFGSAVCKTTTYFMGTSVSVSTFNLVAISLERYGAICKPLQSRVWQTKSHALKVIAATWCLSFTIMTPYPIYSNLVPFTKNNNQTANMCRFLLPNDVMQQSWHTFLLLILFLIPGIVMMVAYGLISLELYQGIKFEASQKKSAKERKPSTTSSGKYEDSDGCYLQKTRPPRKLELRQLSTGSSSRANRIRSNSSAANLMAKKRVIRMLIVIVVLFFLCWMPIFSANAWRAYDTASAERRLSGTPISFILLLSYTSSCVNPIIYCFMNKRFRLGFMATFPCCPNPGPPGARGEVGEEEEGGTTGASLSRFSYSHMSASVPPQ

[4] = 1321-N1 cells stably expressing CCK-2R, IP1 accumulation, highest dose tested 1×10^6 pM, read-out: EC50 (CCK-2R)
[5] = displacement of [125I]-CCK-8s, plasma membranes of 1321-N1 cells expressing CCK-2R, highest dose tested 1×10^7 pM, read-out: IC50 (CCK-2R)

Row | SMILES | EC50 [1, 4] [nM] | IC50 [2, 5] [nM] | other results
1 | CCCC[C@H](NC(=O)[C@H](Cc1ccc(CS(=O)(=O)O)cc1)NC(=O)[C@H](CC(=O)O)NC(=O)COCCOCCNC(=O)COCCOCCNC(=O)CC[C@H](NC(=O)CCCCCCCCCCCCCCCCC(=O)O)C(=O)O)C(=O)NCC(=O)N[C@@H](Cc1c[nH]c2ccccc12)C(=O)N[C@@H](CCCC)C(=O)N(C)[C@H](CC(=O)O)C(=O)N(C)[C@@H](Cc1ccccc1)C(N)=O [Example 3, 2-[2-[2-[[2-[2-[2-[[(4S)-4-Carboxy-4-(17-carboxyheptadecanoylamino)butanoyl]amino]ethoxy]ethoxy]acetyl]amino]ethoxy]ethoxy]acetyl-Asp-Phe(4-sulfomethyl)-Nle-Gly-Trp-Nle-DMeAsp-MePhe-amide] ({C18 diacid-γGlu-AEEA-AEEA}-D[Phe(4-CH2SO3H)][Nle]GW[Nle][dNMeD][NMeF]-NH2) | – | – | EC50 [3]: 0.31 nM; EC50 [1]: > 1000 nM; IC50 [2]: > 10000 nM
2 | CCCC[C@H](NC(=O)[C@H](Cc1c[nH]c2ccccc12)NC(=O)CNC(=O)[C@H](CC(C)C)NC(=O)[C@H](Cc1ccc(OS(=O)(=O)O)cc1)NC(=O)[C@H](CC(=O)O)NC(=O)[C@H](CO)NC(=O)[C@H](CO)NC(=O)CNC(=O)[C@H](CO)NC(=O)[C@H](CO)NC(=O)CNC(=O)CCCCCCCCCCCCCCCCC(=O)O)C(=O)N(C)[C@H](CC(=O)O)C(=O)N(C)[C@@H](Cc1ccccc1)C(N)=O [Example 29, 17-Carboxyheptadecanoyl-Gly-Ser-Ser-Gly-Ser-Ser-Asp-sTyr-Leu-Gly-Trp-Nle-DMeAsp-MePhe-amide] ({C18 diacid}-GSSGSSD[sY]LGW[Nle][dNMeD][NMeF]-NH2) | – | – | CCK-1R selectivity (EC50 (CCK-2R)/EC50 (CCK-1R)) ([3]; ratio of functional EC50 values, >1 = preference for CCK-1R): 28
3 | CCCC[C@H](NC(=O)[C@H](Cc1c[nH]c2ccccc12)NC(=O)CNC(=O)[C@H](CC(C)C)NC(=O)[C@H](Cc1ccc(CS(=O)(=O)O)cc1)NC(=O)[C@H](CC(=O)O)NC(=O)COCCOCCNC(=O)COCCOCCNC(=O)CC[C@H](NC(=O)CCCCCCCCCCCCC(=O)O)C(=O)O)C(=O)N(C)[C@H](CC(=O)O)C(=O)N(C)[C@@H](Cc1ccccc1)C(N)=O [Example 34, 2-[2-[2-[[2-[2-[2-[[(4S)-4-Carboxy-4-(13-carboxytridecanoylamino)butanoyl]amino]ethoxy]ethoxy]acetyl]amino]ethoxy]ethoxy]acetyl-Asp-Phe(4-sulfomethyl)-Leu-Gly-Trp-Nle-DMeAsp-MePhe-amide] ({C14 diacid-γGlu-AEEA-AEEA}-D[Phe(4-CH2SO3H)]LGW[Nle][dNMeD][NMeF]-NH2) | > 1000 | > 10000 | EC50 ([3]; 1321-N1 cells stably expressing CCK-1R, IP1 accumulation, average of min. three replicates, read-out: EC50 (CCK-1R)): 0.21 nM

Second part, led by results:

Row | EC50 [1, 4] [nM] | IC50 [2, 5] [nM] | SMILES | other results
4 | 180 | 1000 | CCCC[C@H](NC(=O)[C@H](Cc1ccc(OS(=O)(=O)O)cc1)NC(=O)[C@H](CC(=O)O)NC(=O)COCCOCCNC(=O)COCCOCCNC(=O)CC[C@H](NC(=O)CCCCCCCCCCCCCCCCC(=O)O)C(=O)O)C(=O)NCC(=O)N[C@@H](Cc1c[nH]c2ccccc12)C(=O)N[C@@H](CCCC)C(=O)N(C)[C@H](CC(=O)O)C(=O)N[C@@H](Cc1cccc2ccccc12)C(N)=O [Example 2, 2-[2-[2-[[2-[2-[2-[[(4S)-4-Carboxy-4-(17-carboxyheptadecanoylamino)butanoyl]amino]ethoxy]ethoxy]acetyl]amino]ethoxy]ethoxy]acetyl-Asp-sTyr-Nle-Gly-Trp-Nle-DMeAsp-1Nal-amide] ({C18 diacid-γGlu-AEEA-AEEA}-D[sY][Nle]GW[Nle][dNMeD][1Nal]-NH2) | –
5 | > 1000 | > 10000 | CCCC[C@H](NC(=O)[C@H](Cc1c[nH]c2ccccc12)NC(=O)CNC(=O)[C@H](CC(C)C)NC(=O)[C@H](Cc1ccc(CS(=O)(=O)O)cc1)NC(=O)[C@H](CC(=O)O)NC(=O)COCCOCCNC(=O)COCCOCCNC(=O)CC[C@H](NC(=O)CCCCCCCCCCCCCCCCCCC(=O)O)C(=O)O)C(=O)N(C)[C@H](CC(=O)O)C(=O)N(C)[C@@H](Cc1ccccc1)C(N)=O [Example 35, 2-[2-[2-[[2-[2-[2-[[(4S)-4-Carboxy-4-(19-carboxynonadecanoylamino)butanoyl]amino]ethoxy]ethoxy]acetyl]amino]ethoxy]ethoxy]acetyl-Asp-Phe(4-sulfomethyl)-Leu-Gly-Trp-Nle-DMeAsp-MePhe-amide] ({C20 diacid-γGlu-AEEA-AEEA}-D[Phe(4-CH2SO3H)]LGW[Nle][dNMeD][NMeF]-NH2) | –
